Experimental data reported in ChEMBL document CHEMBL3390848, “Affinity selection and sequence-activity relationships of HIV-1 membrane fusion inhibitors directed at the drug-resistant variants” (Medchemcomm, 2010).
Residues, ends and D or L forms follow the SMILES beside them.

Key:
[1] = system: Human immunodeficiency virus 1; assay: Thermal stability of HIV1 envelope glycoprotein gp41 His-tagged N-terminal heptad repeat N36-drug complex assessed as thermal unfolding transition state by measuring molar ellipticity at 4 to 90 degC by circular dichroic spectra analysis
[2] = system: Human immunodeficiency virus 1; assay: Binding affinity to HIV1 His-tagged N-terminal heptad repeat of envelope glycoprotein gp41 assessed as recovery of N36-drug complex after 2 hrs by LC-MS analysis; design: concentration or dose not given beside the values
[3] = system: Human immunodeficiency virus 1; assay: Antiviral activity against HIV1 NL4-3 harboring gp41 D36G mutant infected in human HeLa cells expressing CD4-LTR-beta-gal assessed as inhibition of viral replication after 48 hrs by MAGI assay; assay type: functional, organism-based

## CC[C@H](C)[C@H](NC(=O)[C@H](CC(C)C)NC(=O)[C@H](CCC(=O)O)NC(=O)[C@H](CCC(=O)O)NC(=O)[C@@H](NC(=O)[C@H](CCCCN)NC(=O)[C@H](CCCCN)NC(=O)[C@@H](NC(=O)[C@H](Cc1ccc(O)cc1)NC(=O)[C@H](CCC(=O)O)NC(=O)[C@H](CCC(=O)O)NC(=O)[C@@H](NC(=O)[C@H](CCCCN)NC(=O)[C@H](CCCCN)NC(=O)[C@H](CC(=O)O)NC(=O)[C@H](Cc1c[nH]c2ccccc12)NC(=O)[C@H](CCC(=O)O)NC(=O)[C@H](CCC(=O)O)NC(=O)[C@H](Cc1c[nH]c2ccccc12)NC(C)=O)[C@@H](C)CC)[C@@H](C)O)[C@@H](C)CC)C(=O)N[C@@H](CCCCN)C(=O)N[C@@H](CCCCN)C(=O)N[C@@H](CO)C(=O)N[C@@H](CCC(=O)O)C(=O)N[C@@H](CCC(=O)O)C(=O)N[C@@H](CO)C(=O)N[C@@H](CCC(N)=O)C(=O)N[C@@H](CCCCN)C(=O)N[C@@H](CCCCN)C(=O)N[C@@H](CC(N)=O)C(=O)N[C@@H](CCC(=O)O)C(=O)N[C@@H](CCC(=O)O)C(=O)N[C@@H](CCC(=O)O)C(=O)N[C@@H](CC(C)C)C(=O)N[C@@H](CCCCN)C(=O)N[C@@H](CCCCN)C(N)=O (Ac-WEEWDKKIEEYTKKIEELIKKSEESQKKNEEELKK-NH2)
[1]
  Tm: 72.4 °C
[2]
  Activity: 4%
[3]
  EC50: 2.5 nM

## CC[C@H](C)[C@H](NC(=O)[C@H](CC(C)C)NC(=O)[C@H](CCC(=O)O)NC(=O)[C@H](CCC(=O)O)NC(=O)[C@@H](NC(=O)[C@H](CCCCN)NC(=O)[C@H](CCCCN)NC(=O)[C@@H](NC(=O)[C@H](Cc1ccc(O)cc1)NC(=O)[C@H](CCC(=O)O)NC(=O)[C@H](CCC(=O)O)NC(=O)[C@@H](NC(=O)[C@H](CCCCN)NC(=O)[C@H](CCCCN)NC(=O)[C@H](CC(=O)O)NC(=O)[C@H](Cc1c[nH]c2ccccc12)NC(=O)[C@H](CCC(=O)O)NC(=O)[C@H](CCC(=O)O)NC(=O)[C@H](Cc1c[nH]c2ccccc12)NC(C)=O)[C@@H](C)CC)[C@@H](C)O)[C@@H](C)CC)C(=O)N[C@@H](CCCCN)C(=O)N[C@@H](CCCCN)C(=O)N[C@@H](CO)C(=O)N[C@@H](CCC(=O)O)C(=O)N[C@@H](CCC(=O)O)C(=O)N[C@@H](CCCCN)C(=O)N[C@@H](CCC(N)=O)C(=O)N[C@@H](CCCCN)C(=O)N[C@@H](CCCCN)C(=O)N[C@@H](CC(N)=O)C(=O)N[C@@H](CCC(=O)O)C(=O)N[C@@H](CCC(=O)O)C(=O)N[C@@H](CCC(=O)O)C(=O)N[C@@H](CC(C)C)C(=O)N[C@@H](CCCCN)C(=O)N[C@@H](CCCCN)C(N)=O (Ac-WEEWDKKIEEYTKKIEELIKKSEEKQKKNEEELKK-NH2)
[1]
  Tm: 69.2 °C
[2]
  Activity: 4.8%
[3]
  EC50: 2.7 nM

## CC[C@H](C)[C@H](NC(=O)[C@H](CC(C)C)NC(=O)[C@H](CCC(=O)O)NC(=O)[C@H](CCC(=O)O)NC(=O)[C@@H](NC(=O)[C@H](CCCCN)NC(=O)[C@H](CCCCN)NC(=O)[C@@H](NC(=O)[C@H](Cc1ccc(O)cc1)NC(=O)[C@H](CCC(=O)O)NC(=O)[C@H](CCC(=O)O)NC(=O)[C@@H](NC(=O)[C@H](CCCCN)NC(=O)[C@H](CCCCN)NC(=O)[C@H](CC(=O)O)NC(=O)[C@H](Cc1c[nH]c2ccccc12)NC(=O)[C@H](CCC(=O)O)NC(=O)[C@H](CCC(=O)O)NC(=O)[C@H](Cc1c[nH]c2ccccc12)NC(C)=O)[C@@H](C)CC)[C@@H](C)O)[C@@H](C)CC)C(=O)N[C@@H](CCCCN)C(=O)N[C@@H](CCCCN)C(=O)N[C@@H](CO)C(=O)N[C@@H](CCC(=O)O)C(=O)N[C@@H](CCC(=O)O)C(=O)N[C@H](C(=O)N[C@@H](CCC(N)=O)C(=O)N[C@@H](CCCCN)C(=O)N[C@@H](CCCCN)C(=O)N[C@@H](CC(N)=O)C(=O)N[C@@H](CCC(=O)O)C(=O)N[C@@H](CCC(=O)O)C(=O)N[C@@H](CCC(=O)O)C(=O)N[C@@H](CC(C)C)C(=O)N[C@@H](CCCCN)C(=O)N[C@@H](CCCCN)C(N)=O)[C@@H](C)O (Ac-WEEWDKKIEEYTKKIEELIKKSEETQKKNEEELKK-NH2)
[1]
  Tm: 76.7 °C
[2]
  Activity: 7.3%
[3]
  EC50: 3.2 nM

## CC[C@H](C)[C@H](NC(=O)[C@H](CC(C)C)NC(=O)[C@H](CCC(=O)O)NC(=O)[C@H](CCC(=O)O)NC(=O)[C@@H](NC(=O)[C@H](CCCCN)NC(=O)[C@H](CCCCN)NC(=O)[C@@H](NC(=O)[C@H](Cc1ccc(O)cc1)NC(=O)[C@H](CCC(=O)O)NC(=O)[C@H](CCC(=O)O)NC(=O)[C@@H](NC(=O)[C@H](CCCCN)NC(=O)[C@H](CCCCN)NC(=O)[C@H](CC(=O)O)NC(=O)[C@H](Cc1c[nH]c2ccccc12)NC(=O)[C@H](CCC(=O)O)NC(=O)[C@H](CCC(=O)O)NC(=O)[C@H](Cc1c[nH]c2ccccc12)NC(C)=O)[C@@H](C)CC)[C@@H](C)O)[C@@H](C)CC)C(=O)N[C@@H](CCCCN)C(=O)N[C@@H](CCCCN)C(=O)N[C@@H](CO)C(=O)N[C@@H](CCC(=O)O)C(=O)N[C@@H](CCC(=O)O)C(=O)N[C@@H](CC(C)C)C(=O)N[C@@H](CCC(N)=O)C(=O)N[C@@H](CCCCN)C(=O)N[C@@H](CCCCN)C(=O)N[C@@H](CC(N)=O)C(=O)N[C@@H](CCC(=O)O)C(=O)N[C@@H](CCC(=O)O)C(=O)N[C@@H](CCC(=O)O)C(=O)N[C@@H](CC(C)C)C(=O)N[C@@H](CCCCN)C(=O)N[C@@H](CCCCN)C(N)=O (Ac-WEEWDKKIEEYTKKIEELIKKSEELQKKNEEELKK-NH2)
[1]
  Tm: 83.8 °C
[2]
  Activity: 8.2%
[3]
  EC50: 2.7 nM

## CC[C@H](C)[C@H](NC(=O)[C@H](CC(C)C)NC(=O)[C@H](CCC(=O)O)NC(=O)[C@H](CCC(=O)O)NC(=O)[C@@H](NC(=O)[C@H](CCCCN)NC(=O)[C@H](CCCCN)NC(=O)[C@@H](NC(=O)[C@H](Cc1ccc(O)cc1)NC(=O)[C@H](CCC(=O)O)NC(=O)[C@H](CCC(=O)O)NC(=O)[C@@H](NC(=O)[C@H](CCCCN)NC(=O)[C@H](CCCCN)NC(=O)[C@H](CC(=O)O)NC(=O)[C@H](Cc1c[nH]c2ccccc12)NC(=O)[C@H](CCC(=O)O)NC(=O)[C@H](CCC(=O)O)NC(=O)[C@H](Cc1c[nH]c2ccccc12)NC(C)=O)[C@@H](C)CC)[C@@H](C)O)[C@@H](C)CC)C(=O)N[C@@H](CCCCN)C(=O)N[C@@H](CCCCN)C(=O)N[C@@H](CO)C(=O)N[C@@H](CCC(=O)O)C(=O)N[C@@H](CCC(=O)O)C(=O)N[C@@H](CCCNC(=N)N)C(=O)N[C@@H](CCC(N)=O)C(=O)N[C@@H](CCCCN)C(=O)N[C@@H](CCCCN)C(=O)N[C@@H](CC(N)=O)C(=O)N[C@@H](CCC(=O)O)C(=O)N[C@@H](CCC(=O)O)C(=O)N[C@@H](CCC(=O)O)C(=O)N[C@@H](CC(C)C)C(=O)N[C@@H](CCCCN)C(=O)N[C@@H](CCCCN)C(N)=O (Ac-WEEWDKKIEEYTKKIEELIKKSEERQKKNEEELKK-NH2)
[1]
  Tm: 71.5 °C
[2]
  Activity: 7.6%
[3]
  EC50: 2.5 nM

## CC[C@H](C)[C@H](NC(=O)[C@H](CC(C)C)NC(=O)[C@H](CCC(=O)O)NC(=O)[C@H](CCC(=O)O)NC(=O)[C@@H](NC(=O)[C@H](CCCCN)NC(=O)[C@H](CCCCN)NC(=O)[C@@H](NC(=O)[C@H](Cc1ccc(O)cc1)NC(=O)[C@H](CCC(=O)O)NC(=O)[C@H](CCC(=O)O)NC(=O)[C@@H](NC(=O)[C@H](CCCCN)NC(=O)[C@H](CCCCN)NC(=O)[C@H](CC(=O)O)NC(=O)[C@H](Cc1c[nH]c2ccccc12)NC(=O)[C@H](CCC(=O)O)NC(=O)[C@H](CCC(=O)O)NC(=O)[C@H](Cc1c[nH]c2ccccc12)NC(C)=O)[C@@H](C)CC)[C@@H](C)O)[C@@H](C)CC)C(=O)N[C@@H](CCCCN)C(=O)N[C@@H](CCCCN)C(=O)N[C@@H](CO)C(=O)N[C@@H](CCC(=O)O)C(=O)N[C@@H](CCC(=O)O)C(=O)N[C@@H](CC(N)=O)C(=O)N[C@@H](CCC(N)=O)C(=O)N[C@@H](CCCCN)C(=O)N[C@@H](CCCCN)C(=O)N[C@@H](CC(N)=O)C(=O)N[C@@H](CCC(=O)O)C(=O)N[C@@H](CCC(=O)O)C(=O)N[C@@H](CCC(=O)O)C(=O)N[C@@H](CC(C)C)C(=O)N[C@@H](CCCCN)C(=O)N[C@@H](CCCCN)C(N)=O (Ac-WEEWDKKIEEYTKKIEELIKKSEENQKKNEEELKK-NH2)
[1]
  Tm: 73.4 °C
[2]
  Activity: 4%
[3]
  EC50: 2.5 nM

## CC[C@H](C)[C@H](NC(=O)[C@H](CC(C)C)NC(=O)[C@H](CCC(=O)O)NC(=O)[C@H](CCC(=O)O)NC(=O)[C@@H](NC(=O)[C@H](CCCCN)NC(=O)[C@H](CCCCN)NC(=O)[C@@H](NC(=O)[C@H](Cc1ccc(O)cc1)NC(=O)[C@H](CCC(=O)O)NC(=O)[C@H](CCC(=O)O)NC(=O)[C@@H](NC(=O)[C@H](CCCCN)NC(=O)[C@H](CCCCN)NC(=O)[C@H](CC(=O)O)NC(=O)[C@H](Cc1c[nH]c2ccccc12)NC(=O)[C@H](CCC(=O)O)NC(=O)[C@H](CCC(=O)O)NC(=O)[C@H](Cc1c[nH]c2ccccc12)NC(C)=O)[C@@H](C)CC)[C@@H](C)O)[C@@H](C)CC)C(=O)N[C@@H](CCCCN)C(=O)N[C@@H](CCCCN)C(=O)N[C@@H](CO)C(=O)N[C@@H](CCC(=O)O)C(=O)N[C@@H](CCC(=O)O)C(=O)NCC(=O)N[C@@H](CCC(N)=O)C(=O)N[C@@H](CCCCN)C(=O)N[C@@H](CCCCN)C(=O)N[C@@H](CC(N)=O)C(=O)N[C@@H](CCC(=O)O)C(=O)N[C@@H](CCC(=O)O)C(=O)N[C@@H](CCC(=O)O)C(=O)N[C@@H](CC(C)C)C(=O)N[C@@H](CCCCN)C(=O)N[C@@H](CCCCN)C(N)=O (Ac-WEEWDKKIEEYTKKIEELIKKSEEGQKKNEEELKK-NH2)
[1]
  Tm: 71 °C
[2]
  Activity: 3.8%
[3]
  EC50: 2.3 nM
